Marks after values point to notes of the source that are not given here.
Legend:
[1] = Clearance (Table E comments); format: in vitro ADME; conditions: no method given
[2] = tested on: retinal ganglion cell axons; test: Protection of retinal ganglion cell axons 14 days after optic nerve transection (Table E); format: in vivo; conditions: ± SEM
Text: Efficacy of representative compounds from different immunophilin ligand series in protecting retinal ganglion cell axons from degeneration following optic nerve transection is set forth in Table E.

[3] = tested on: retinal ganglion cells and optic nerve axons; test: Optic nerve transection, 14 or 28 day treatment, evaluation 90 days after transection; format: in vivo, Sprague Dawley rats; conditions: 90 days after ONT; for increased ON axon density: adjusted for optic nerve diameter; for ON axon Count: axonal density multiplied by ON area; for Proximal optic nerve myelin basic protein Density, % recovery: ± SEM
Text: All eyes and optic nerves stumps were removed.

[4] = tested on: retinal ganglion cells, optic nerve axons and myelin; test: Retinal ischemia (intraocular pressure raised above arterial pressure), evaluation 28 days later; format: in vivo, rats
Text: Retinal ganglion cells were retrogradely labeled in adult rats by bilateral injection of fluorogold in their lateral geniculate nuclei. Labeled ganglion cells in the normal rat retina appear as white profiles against the dark background (FIG. 1A). Complete retinal ischemia was produced by infusing normal saline solution into the retinal vitreous cavity of each eye until the intraocular pressure exceeded arterial blood pressure. 28 days after the ischemic episode extensive degeneration of retinal ganglion cell was evidenced by massive reduction in the density of fluorogold labeled cells (FIG. 1B).
Optic nerves from vehicle treated cases examined 28 days after a 1 hour retinal ischemic episode are characterized by a decreased density of optic nerve axons and the appearance of numerous degenerating myelin figures (bright white filled circles).

[5] = tested on: retina (neovascularization, INL, GCL, ONL neurons); test: Streptozotocin induced diabetes, retinal neovascularization and neuron loss; format: in vivo
[6] = tested on: retinal ganglion cells and their axons; test: Example 18: optic nerve transection, 28 day GPI-1046, sacrifice at 90 days; format: in vivo, Sprague Dawley rats; conditions: 10 mg/kg/day s.c. for 28 days; 90 days after transection
Text: Transection of the mammalian optic nerve results in a brief period of abortive regeneration, but the majority of axotomized neurons die and the axons from many persisting ganglion cells die back beyond the optic nerve head.

[7] = tested on: streptozotocin-induced diabetic rat; test: Streptozotocin-induced diabetic sensory neuropathy, hot plate and tail flick; format: in vivo, Male Wistar rats; conditions: treated for 6 weeks at 10 mg/kg s.c., started six weeks after streptozotocin
Procedure: The procedure involved using Male Wistar rats which were given a single injection of streptozotocin (65 mg/kg i.v.). Blood glucose levels were determined weekly for the first three weeks and on the last week of the experiment. Animals were evaluated weekly for signs of sensory neuropathy using the conventional hot plate and tail flick apparatus test procedures.

aged impaired mice = test: Morris watermaze, spatial learning and memory in aged rodents; format: in vivo, C57BL/6N-Nia mice; conditions: 10 mg/kg daily
Text: The Morris watermaze is widely used for assessing spatial memory formation and retention in experimental animals. The test depends on the animal's ability to utilize spatial visual information in order to locate a submerged escape platform in a water tank. It is important that the tank itself be as devoid of specific visual features as possible—thus, it is always circular in shape, the sides are kept smooth and in uniform dull colors, and the water is rendered opaque with nontoxic watercolor pigment or powdered milk. This is to ensure that the animal navigates only by the use of more distant visual cues, or by the use of intra-maze cues specifically provided by the experimenter. The animals' path, speed, and swim time are tracked with a ceiling camera for later computerized analysis. Over the course of several successive trials, spatial learning can therefore be defined as a drop of distance swum, or time elapsed, from placement in the tank until escape onto the invisible platform. The procedure involved using three-month old (young) and 18-19 month old male C57BL/6N-Nia (aged) mice which habituated to the well known and conventional Morris watermaze during a 4 trials/day, 3-4 day visible platform training phase. […] Swim Distances (cm) were analyzed in a 7×5 ANOVA including Groups and Blocks (1-5) as factors in the analysis, treating Blocks as a repeated measure.

FKBP12 = FKBP12 (Homo sapiens, UniProt P62942); test: Ki test: inhibition of peptidyl-prolyl isomerase (rotamase) activity, chymotrypsin-coupled assay; format: biochemical; conditions: apparent Ki, Table II
Text: The inhibition of the prolyl peptidyl cis-trans isomerase activity of FKBP may be measured as an indicator of this affinity. Inhibition of the peptidyl-prolyl isomerase (rotamase) activity of the compounds used in the inventive methods and pharmaceutical compositions can be evaluated by known methods described in the literature (Harding et al., Nature, 1989, 341:758-760; Holt et al. J. Am. Chem. Soc., 115:9923-9938). […] The cis-trans isomerization of an alanine-proline bond in a model substrate, N-succinyl-[…]-nitroanilide, is monitored spectrophotometrically in a chymotrypsin-coupled assay, which releases para-nitroanilide from the trans form of the substrate. The inhibition of this reaction caused by the addition of different concentrations of inhibitor is determined, and the data is analyzed as a change in first-order rate constant as a function of inhibitor concentration to yield the apparent Ki values. […] The absorbance at 390 nm versus time is monitored for 90 seconds using a spectrophotometer and the rate constants are determined from the absorbance versus time data files.

[8] = 28 day treatment beginning 8 weeks after onset of streptozotocin diabetes

FKBP12, sequence (P62942 whole entry, species assumed): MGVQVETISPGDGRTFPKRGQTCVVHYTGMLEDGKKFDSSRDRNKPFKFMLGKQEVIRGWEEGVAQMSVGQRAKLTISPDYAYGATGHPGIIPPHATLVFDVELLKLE

Structure (SMILES): O=C(SCCCc1ccccc1)[C@@H]1CCCN1S(=O)(=O)Cc1ccccc1 [C]
- Clearance [1]: 31.1 µL/min
- RT97 + RGC axon density 14 days after ON transection (% ON axons rescued) [2]: 60.4% ± 3.1% SEM

Structure (SMILES): CN(C)C(=O)N1CCC[C@H]1C(=O)SCCCc1ccccc1 [N]
- Clearance [1]: 21.9 µL/min

Structure (SMILES): O=C(OCCCc1cccnc1)[C@@H]1CCCN1C(=S)NC1CCCCC1 [I]
- Clearance [1]: 8.0 µL/min
- RT97 + RGC axon density 14 days after ON transection (% ON axons rescued) [2]: 23.8% ± 5.3 SEM

Structure (SMILES): CCC(C)(C)C(=O)C(=O)N1CCCCC1C(=O)OC(CCc1ccccc1)CCc1ccccc1 (stereo not drawn) [E]
- Clearance [1]: 41.8 µL/min

Structure (SMILES): CCC(C)(C)C(=O)C(=O)N1CCC[C@H]1C(=O)SCCCc1cccnc1 [GPI 1046]
- Clearance [1]: 63.8 µL/min
- % RGCs Rescued ([3]; 14 days GPI 1046): 5.3%
- % surviving RGCs with ON axons ([3]; 14 days GPI 1046): 33.6%
- ON head area (% sham) ([3]; 14 days GPI 1046): 76%
- Spared RGC population ([3]; 14 days GPI 1046): 20,275
- increased ON axon density ([3]; 14 days GPI 1046): 1.5×
- ON axon Count ([3]; 14 days GPI 1046): 6820
- Distal optic nerve myelin basic protein loss ([3]; 14 days GPI 1046, cross sectional area multiplied by myelin density): 47% loss
- Distal optic nerve shrinkage ([3]; 14 days GPI 1046, cross sectional area vs sham): 33% shrinkage
- ON Axon density ([3]; 14 days GPI 1046, mean ± SEM RT97 labeled axons in 200 μm × 200 μm region): 569 ± 23
- Proximal optic nerve myelin basic protein Density, % recovery ([3]; 14 days GPI 1046, % areal coverage of cross section): 1.6 ± 3.0 SEM % recovery
- RGC Counts ([3]; 28 days GPI 1046 10 mg/kg/day sc, mean density ± SEM of Fluoro-gold labeled RGC in 400 μm × 400 μm gridfields): 67.9 ± 5.8
- % surviving RGCs with ON axons ([3]; 28 days GPI 1046): 81.4%
- Distal optic nerve myelin preservation ([3]; 28 days GPI 1046): 99% myelin
- ON head area (% sham) ([3]; 28 days GPI 1046): 95%*
- Spared RGC population ([3]; 28 days GPI 1046): 28,096*
- increased ON axon density ([3]; 28 days GPI 1046): 5.0×
- ON axon Count ([3]; 28 days GPI 1046): 22,861*
- Distal optic nerve, less shrinkage ([3]; 28 days GPI 1046, cross sectional area vs sham): 56% less shrinkage*
- Proximal optic nerve myelin basic protein Density, % recovery ([3]; 28 days GPI 1046): 70 ± 6.3 SEM % recovery
- density of myelin, distal stump ([3]; first 14 days GPI 1046): slightly increase the density of myelin
- shrinkage of the distal stump ([3]; first 14 days GPI 1046): did not protect against shrinkage
- protection of optic nerve axons ([3]; first 14 days GPI 1046, proximal stump): 5.3%
- cross sectional shrinkage of the distal stump ([3]; first 28 days GPI 1046): prevented cross sectional shrinkage
- fascicular staining pattern for myelin basic protein, proximal stump ([3]; first 28 days GPI 1046): dramatic preservation of the fascicular staining pattern
- myelin levels, distal stump, % of normal levels ([3]; first 28 days GPI 1046): 99%
- RT97 + RGC axon density 14 days after ON transection (% ON axons rescued) [2]: 60.5% ± 3.9 SEM
- protection of fluorogold labeled retinal ganglion cells ([4]; 10 mg/kg s.c. 1 hour prior to ischemia and 10 mg/kg/day for next four days, 28 days after ischemia): noticeable protection of a large proportion of the vulnerable ganglion cell population
- density of degenerating myelin figures in optic nerve ([4]; 28 days after 1 hour retinal ischemic episode): dramatically decreased the density of degenerating myelin figures
- neovascularization in the PR, ONL, OPL and INL [5, 8]: reduced neovascularization
- neuronal loss in the ONL [5, 8]: did not appear to protect against neuronal loss
- loss of neurons in the INL and GCL ([5]; 28 day treatment beginning 8 weeks after onset, vs streptozotocin/vehicle controls): appeared to decrease the loss of neurons
- axons in the proximal stump of the transected nerve (RT97) [6]: preserved the axons of virtually all protected neurons
- ganglion cell population spared [6]: 25%
- latency, hot plate and tail flick [7]: improvement in latency
- spatial memory performance, retention testing (swim distance), aged impaired GPI-1046 vs aged impaired vehicle (aged impaired mice; retention testing after 3 weeks of dosing, F1.69=8.11, P=0.006): significantly enhanced spatial memory performance
- retention phase swim distance, young vs aged impaired GPI-1046 (aged impaired mice; F1.69=3.09, P=0.08): no longer any statistically significant difference

Structure (SMILES): CCC(C)(C)NC(=O)N1CCC[C@H]1C(=O)OCCCc1cccnc1 [Compound 2, 3-(3-Pyridyl)-1-propyl (2S)-1-[(1′,1′-dimethylpropyl)carbamoyl]pyrrolidine-2-carboxylate]
- Ki (FKBP12): 742 nM

Structure (SMILES): O=C(OCCCc1cccnc1)[C@@H]1CCCN1C(=O)NC1CCCCC1 [Compound 4, 3-(3-pyridyl)-1-propyl (2S)-1-[(cyclohexyl)carbamoyl]-pyrrolidine-2-carboxylate]
- Ki (FKBP12): 1480 nM

Structure (SMILES): O=C(SCCCc1ccccc1)[C@@H]1CCCN1C(=O)NC12CC3CC(CC(C3)C1)C2 [B]
- RT97 + RGC axon density 14 days after ON transection (% ON axons rescued) [2]: 100.0% ± 5.2% SEM

Structure (SMILES): CCC(C)(C)C(=O)C(=O)N1CCCC[C@H]1C(=O)O [G]
- RT97 + RGC axon density 14 days after ON transection (% ON axons rescued) [2]: 34.0% ± 4.8% SEM

Structure (SMILES): CCC(C)(C)C(=O)C(=O)N1CCCC[C@H]1C(N)=O [H]
- RT97 + RGC axon density 14 days after ON transection (% ON axons rescued) [2]: 30.3% ± 8.0% SEM

Structure (SMILES): CCC(C)(C)C(=O)C(=O)N1CCC[C@H]1C(=O)O [L]
- Clearance [1]: 5.2 µL/min
- RT97 + RGC axon density 14 days after ON transection (% ON axons rescued) [2]: 7.8% ± 3.0% SEM

Structure (SMILES): CCC(C)CNC(=O)N1CCC[C@H]1C(=O)OCCCc1cccnc1 (stereo partly drawn) [Compound 1, 3-(3-pyridyl)-1-propyl (2S)-1-[(2-methylbutyl)carbamoyl]pyrrolidine-2-carboxylate]
- Ki (FKBP12): 70 nM

Structure (SMILES): O=C(OCCCc1cccnc1)[C@@H]1CCCN1C(=S)NC12CC3CC(CC(C3)C1)C2 [Compound 5, 3-(3-pyridyl)-1-propyl (2S)-1-[(1-adamantyl)thiocarbamoyl]-pyrrolidine-2-carboxylate]
- Ki (FKBP12): 116 nM

Structure (SMILES): CCC(C)(C)C(=O)C(=O)N1CCC[C@H]1C(=O)SCCC(c1ccccc1)c1ccccc1 [M]
- Clearance [1]: 12.5 µL/min
- RT97 + RGC axon density 14 days after ON transection (% ON axons rescued) [2]: −6.3% ± 3.9% SEM

Structure (SMILES): CCC(C)(C)C(=O)C(=O)N1CCCC[C@H]1C(=O)SCCC(c1ccccc1)c1ccccc1 [Compound K]
- Clearance [1]: 4.5 µL/min

Structure (SMILES): CCC(C)(C)C(=O)C(=O)N1CCC[C@H]1C(=O)CCCCc1cccnc1 [J]
- Clearance [1]: 1.5 µL/min
- RT97 + RGC axon density 14 days after ON transection (% ON axons rescued) [2]: 15.8% ± 4.8% SEM
